Test results published in patent publication US9487557B2, “Peptides for management of lactation” (MILEUTIS LTD., priority 2012, dated 2016).
Square brackets hold non-standard residues; d marks the D form. Ends that are not written are not given here. pS = N[C@@H](COP(=O)(O)O)C(=O)O

Experiments:
Format in all cases: in vivo
[1] = system: mammary gland of lactating dairy cows; assay: Field study of involution induction: change of pH in milk samples after a single intramammary infusion at dry-off; conditions: for Changes of pH in milk samples, Day 1, Mean / Changes of pH in milk samples, Day 2, Mean / Changes of pH in milk samples, Day 3, Mean: difference in pH vs Day 0, single intramammary infusion, peptides 4 mg in 10 ml, casein hydrolyzate 20 ml; for Changes of pH in milk samples, Day 1, Mean: Day 1 post treatment; for Changes of pH in milk samples, Day 2, Mean: Day 2 post treatment; for Changes of pH in milk samples, Day 3, Mean: Day 3 post treatment
Experimental: (§1) A filed study was performed to assess the potential of a single intramammary dose of the synthetic peptides of the invention administered at dry (i.e. at the day in which milking is ceased), to induce rapid involution.
(§2) Total of 107 dairy cows were enrolled to the study, of which 45 received treatment and 62 served as a control. All cows were dairy cows at their first or further lactation that stand the inclusion/exclusion criteria. The study was a controlled blinded case-control study.
(§3) Case subjects received one dose by intramammary infusion of a particular peptide. Controls were lactating cows that received the following products by intramammary administration:
(§4) Five groups of 9 cows (total of 36 udder quarters per group) were scheduled as case groups. Each group was treated with one out of the five (5) phosphopeptides described in Example 1 hereinabove (P241210-01-01; 03; 05; 07 and 09). The peptides were administered once via intramammary infusion of 10 ml containing 4 mg peptide.
(§5) Set one: Five groups of 9 cows (total of 36 udder quarters per group) were scheduled as a first control set. Each group was treated with one out of the five (5) dephosphorylated peptides described in Example 1 hereinabove (P241210-01-02; 04; 06; 08 and 10). The peptides were administered once via intramammary infusion of 10 ml containing 4 mg peptide.
(§6) (i) Eleven cows (total of 44 udder quarters) treated with casein hydrolyzate (20 ml) administered once via intramammary infusion of 20 ml (around 1.8 mg/ml casein phosphopeptide (CPP), total=36 mg CPP for 20 ml)
(§7) All treatments (peptides, casein hydrolyzate and saline) were administered at the time point scheduled for cessation of milking (dry off). The day of administration was set as Day 0.
(§8) Sets of aseptic milk samples were collected in two separate vials once a day in the milking facility after the morning milking, on Day 0 and in post-treatment days 1, 2 and 3. The sampling time points were set to up to three days after treatment administration to ensure sufficient milk secretion for the measurements of all involution parameters. The volume of the samples was between 30 to 50 ml. The pH of the milk sample was measured in situ using a Cyberscan pH11 meter (Eutech Instruments, Singapore). The apparatus was calibrated each day by immersing the receptor in standard buffers of pH 7.0 and pH 4.01. Measurements were taken twice for each sample obtained from a mammary gland, with an interval of 30 seconds between measurements. pH measurement was repeated on-site by using the same sample vial. Before double-pH measurement, the milk sample vials were gently shaken three (3) times. After the pH measurement, the milk samples vials were kept in cool storage with a preservative product (Broad Spectrum Microtabs II—Bronopol and Metamycin—D&F Control System Inc., Two Technology Way, Norwood Mass. 02062 USA).
(§9) Endpoint Measures: pH, lactose and somatic cell counts (SCC) values from milk secretions at day 0 and during three (3) days post-treatment were taken. Results are described as the difference between the measures at each of the 3 days post treatment and the measured level at Day 0.
Table 2 below summarizes the effect of the peptides examined and of casein hydrolyzate (CNH) on the pH of milk samples taken 1, 2 and 3 days after the one-dose treatment with each peptide or CNH. The results are presented as the difference in pH value between each of the days post treatment and Day 0 (before treatment).

[2] = system: mammary gland of lactating dairy cows; assay: Field study of involution induction: change in somatic cell counts in milk samples after a single intramammary infusion at dry-off; conditions: for Changes in Somatic Cell Counts in milk samples, Day 1, Mean / Changes in Somatic Cell Counts in milk samples, Day 2, Mean / Changes in Somatic Cell Counts in milk samples, Day 3, Mean: change vs Day 0, calculated from log transformation of raw data, single intramammary infusion, peptides 4 mg in 10 ml, casein hydrolyzate 20 ml; for Changes in Somatic Cell Counts in milk samples, Day 1, Mean: Day 1 post treatment; for Changes in Somatic Cell Counts in milk samples, Day 2, Mean: Day 2 post treatment; for Changes in Somatic Cell Counts in milk samples, Day 3, Mean: Day 3 post treatment
Experimental: as §1, §2, §3, §4, §5, §6, §7, §8
Somatic cell count was also determined in milk samples by Fossomatic 360 (Foss Electric, Hillerod, Denmark), and based on guidelines from the USA National Mastitis Council. Laboratory Handbook on Bovine Mastitis. 1999. Ed. National Mastitis Council, Verona, Wis. 53593 USA.
as §9
Additional parameter that may be used to establish the progression of the involution process is the presence of somatic cells within the milk. The increase in cell count within the milk is the result of high degree of apoptotic epithelial cell death associated with involution. […] The results presented in the table were calculated from log transformation of the raw data that were highly variable.

[3] = system: mammary gland of lactating dairy cows; assay: Field study of involution induction: change in lactose content of milk samples after a single intramammary infusion at dry-off; conditions: for Changes in Lactose content in milk samples, Day 1, Mean / Changes in Lactose content in milk samples, Day 2, Mean / Changes in Lactose content in milk samples, Day 3, Mean: difference in lactose concentration vs Day 0, single intramammary infusion, peptides 4 mg in 10 ml, casein hydrolyzate 20 ml; for Changes in Lactose content in milk samples, Day 1, Mean: Day 1 post treatment; for Changes in Lactose content in milk samples, Day 2, Mean: Day 2 post treatment; for Changes in Lactose content in milk samples, Day 3, Mean: Day 3 post treatment
Experimental: as §1, §2, §3, §4, §5, §6, §7, §8
Lactose values in the milk samples were determined at the Central Laboratory of Milk Quality, Caesaria Industrial Park, Israel, according to ISO 2266211DF 198:2007.
Data from six quarters were excluded from the analysis of lactose changes. Data from one of those quarters were omitted due to a missing initial value. For the other five quarters, lactose concentrations taken during the three follow-up days could not be analyzed due to a rapid mammary involution process, resulting in non-sufficient milk sample for lactose analysis.
as §9
One of the most significant outcomes of involution in terms of milk composition is a reduction in lactose content. Thus, lactose concentration was also measured in the milk samples taken before and after peptide or CNH administration as described for the pH measurements hereinabove. […]

Substance | Changes of pH in milk samples, Day 1, Mean [1] | Changes of pH in milk samples, Day 2, Mean [1] | Changes of pH in milk samples, Day 3, Mean [1] | Changes in Somatic Cell Counts in milk samples, Day 1, Mean [2] | Changes in Somatic Cell Counts in milk samples, Day 2, Mean [2] | Changes in Somatic Cell Counts in milk samples, Day 3, Mean [2] | Changes in Lactose content in milk samples, Day 1, Mean [3] | Changes in Lactose content in milk samples, Day 2, Mean [3] | Changes in Lactose content in milk samples, Day 3, Mean [3] | effect on the milk pH, in words ([1]; compared with the other peptides and casein hydrolyzate, particularly first 2 days after treatment) | induction of involution, overall conclusion in words ([2]; conclusion from pH, lactose and somatic cell count results) | effect on the reduction of lactose content, in words ([3]; all time points examined, compared with CNH)
ESLSSSEE-NH2 [D] | 0.000 | −0.027 | 0.013 | 0.387 | 1.023 | −0.249 | −0.749 | −1.387 | −0.090 |  |  | 
Glu-Ser(P)-Leu-Ser(P)-Ser(P)-Ser(P)-Glu-Glu-NH2 (E[pS]L[pS][pS][pS]EE-NH2; N-terminus assumed; SMILES CC(C)C[C@H](NC(=O)[C@H](COP(=O)(O)O)NC(=O)[C@@H](N)CCC(=O)O)C(=O)N[C@@H](COP(=O)(O)O)C(=O)N[C@@H](COP(=O)(O)O)C(=O)N[C@@H](COP(=O)(O)O)C(=O)N[C@@H](CCC(=O)O)C(=O)N[C@@H](CCC(=O)O)C(N)=O) [D(p), casein-derived peptide, positive control] | 0.027 | −0.018 | 0.077 | 0.383 | 1.181 | 1.998 | −0.431 | −1.460 | −2.180 |  |  | 
KKSLSS-NH2 [A] | 0.048 | −0.002 | 0.072 | 0.911 | 1.571 | 2.090 | −0.463 | −1.268 | −1.773 |  |  | 
KSSSEE-NH2 | 0.047 | −0.028 | 0.115 | −0.186 | 0.843 | 1.492 | −0.368 | −1.531 | −1.675 |  |  | 
Lys-Lys-Ser(P)-Leu-Ser(P)-Ser(P)-Ser(P)-NH2 (KK[pS]L[pS][pS][pS]-NH2; N-terminus assumed; SMILES CC(C)C[C@H](NC(=O)[C@H](COP(=O)(O)O)NC(=O)[C@H](CCCCN)NC(=O)[C@@H](N)CCCCN)C(=O)N[C@@H](COP(=O)(O)O)C(=O)N[C@@H](COP(=O)(O)O)C(=O)N[C@@H](COP(=O)(O)O)C(N)=O) [A(p)] | 0.016 | 0.020 | 0.118 | 0.592 | 1.212 | 1.829 | −0.462 | −1.364 | −1.771 |  |  | 
Lys-Lys-Ser(P)-Ser(P)-NH2 (KK[pS][pS]-NH2; N-terminus assumed; SMILES NCCCC[C@H](NC(=O)[C@@H](N)CCCCN)C(=O)N[C@@H](COP(=O)(O)O)C(=O)N[C@@H](COP(=O)(O)O)C(N)=O) [C(p)] | 0.066 | 0.046 | 0.119 | −0.129 | 0.961 | 0.195 | −0.509 | −1.427 | −0.345 |  |  | 
Lys-Lys-Ser(P)-Ser(P)-Ser(P)-NH2 (KK[pS][pS][pS]-NH2; N-terminus assumed; SMILES NCCCC[C@H](NC(=O)[C@@H](N)CCCCN)C(=O)N[C@@H](COP(=O)(O)O)C(=O)N[C@@H](COP(=O)(O)O)C(=O)N[C@@H](COP(=O)(O)O)C(N)=O) [B(p)] | 0.171 | 0.165 | 0.163 | 3.129 | 3.099 | 3.451 | −1.250 | −2.013 | −2.521 | showed the most significant effect on the milk pH | highly effective in inducing involution | higher effect on the reduction of lactose content compared to the effect of CNH
Lys-Lys-Ser-Ser-NH2 [C] | 0.034 | −0.006 | −0.001 | 0.511 | 1.194 | 0.650 | −0.846 | −1.554 | −0.387 |  |  | 
Lys-Lys-Ser-Ser-Ser-NH2 [B] | −0.015 | −0.019 | 0.065 | 0.109 | 0.664 | 1.191 | −0.320 | −0.969 | −1.412 |  |  | 
